Source: patent publication US20240358693A1, “METHODS OF TREATING PAIN” (Aisa Pharma, Inc., priority 2023, published 2024)

Test system: participants with SSc-RP
Experiment: Scleroderma Health Assessment Questionnaire (SHAQ): disability indices and visual analog scales
Assay type: in vivo, human
Details: PP Population, Part A, SSc patients, sensitivity analysis
Excerpt: The standard, validated, patient reported outcome measures tool for SSc patients, the Scleroderma Health Assessment Questionnaire (SHAQ), will be used to assess the participant qualify of life. Details are attached in the Appendix. The participant quality of life will be scored, and a disability index calculated for each questionnaire completed by the patient at Screening and each in-clinic visit. The absolute change in participant quality of life from baseline to the end of each dosing period will be calculated similar to frequency data as before.
The SHAQ includes a Raynaud's VAS, which will be reported at screening and each in-clinic visit. The absolute change in Raynaud-VAS, assessed by the participants response to the SHAQ question ‘In the past 7 days, how much have your Raynaud's interfered with your daily activities?’ at baseline and the end of each dosing period will be calculated similar to frequency data as before.
The SHAQ is used to calculate a Disability Index to assess the participant qualify of life. The eight categories assessed by the Disability Index are 1) dressing and grooming, 2) arising, 3) eating, 4) walking, 5) hygiene, 6) reach, 7) grip, and 8) common daily activities. For each of these categories, patients report the amount of difficulty they have in performing two or three specific activities.
There are four possible responses for the Disability Index questions: • Without any difficulty=0 • With some difficulty=1 • With much difficulty=2 • Unable to do=3. • The highest score reported by the patient for any component question of the eight categories determines the score for that category. • If a component question is left blank or the response is too ambiguous to assign a score, then the score for that category is determined by the remaining completed question(s). • If all component questions are blank or if more than one answer is given, then follow up with the respondent is required. • If the respondent's mark is between the response columns, then move it to the closest one. If it's directly between the two, move it to the higher one.
Each of the disability items on the SHAQ has a companion aids/devices variable that is used to record what type(s) of assistance, if any, the participant uses for his/her usual activities. These variables (see below) are coded as follows: • 0=No assistance is needed. • 1=A special device is used by the patient in his/her usual activities. • 2=The patient usually needs help from another person. • 3=The patient usually needs BOTH a special device AND help from another person.
The scoring variables and scoring rules permit the computation of two disability indices, the Standard Disability Index and the Alternative Disability Index.
This question results in a new set of category scores that are computed by adjusting the score for each category, if necessary, based on the patient's use of an aid or device or assistance for that category. If either devices and/or help from another person are checked for a category, the score is set to “2”, unless the score is already “3” (i.e., scores of “0” or “1” are increased to “2”). For example, if the highest score for the dressing category is “1”, and the patient says they use a device for dressing, the computed category score would be “2”. The sum of the computed categories scores is then calculated and divided by the number of categories answered. This gives a score in the 0 to 3 range.
The aid and device variables are not used to calculate the alternative disability index; it is calculated by adding the scores for each of the categories and dividing by the number of categories answered. This gives a score in the 0 to 3 range.
The standard, validated, patient reported outcome measures tool for SSc patients, the SHAQ, was collected at the time points specified in the study schedules (FIG. 2 and FIGS. 4A and 4B) to assess the participant's quality of life. The SHAQ included a Raynaud's VAS that will also be reported separately.

[1] = Day 12 vs baseline, Subject 01-110 Day 12 score excluded
[2] = In-Clinic Visit (Day 12), Subject 01-110 Day 12 score excluded

`COCCOC(=O)C1=C(C)NC(C)=C(C(=O)OC/C=C/c2ccccc2)C1c1cccc([N+](=O)[O-])c1` (stereo not drawn) [Any Cilnidipine] was tested. Which “SHAQ Visual Analogue Scale - Raynaud’s, Change from Baseline, Min” value (Day 12 vs baseline) did it give?
The value was −4.10.

What about the “SHAQ Visual Analogue Scale - Raynaud’s, Change from Baseline, Q1” value (Day 12 vs baseline) of the same compound?
The value was −1.000.

What about the “SHAQ Visual Analogue Scale - Raynaud’s, Change from Baseline, Q3” value (Day 12 vs baseline) of the same compound?
The value was 0.000.

And the “SHAQ Visual Analogue Scale - Raynaud’s, Percent Change from Baseline, Max” value (Day 12 vs baseline)?
Its value is 136.4%.

And the “SHAQ Visual Analogue Scale - Raynaud’s, Percent Change from Baseline, Mean” value (Day 12 vs baseline)?
Its value is −20.44%.

What about the “SHAQ Visual Analogue Scale - Raynaud’s, Percent Change from Baseline, Median” value (Day 12 vs baseline) of the same compound?
Its value is −33.33%.

And the “SHAQ Visual Analogue Scale - Raynaud’s, Percent Change from Baseline, Min” value (Day 12 vs baseline)?
The value was −100.0%.

What about the “SHAQ Visual Analogue Scale - Raynaud’s, Percent Change from Baseline, Q1” value (Day 12 vs baseline) of the same compound?
The value was −50.62%.

What about the “SHAQ Visual Analogue Scale - Raynaud’s, Percent Change from Baseline, Q3” value (Day 12 vs baseline) of the same compound?
Its value is 0.00%.

And the “SHAQ Visual Analogue Scale - Breathing Problems, Change from Baseline, Max” value [1]?
Its value is 3.70.

What about the “SHAQ Visual Analogue Scale - Breathing Problems, Change from Baseline, Mean” value [1] of the same compound?
The value was 0.025.

What about the “SHAQ Visual Analogue Scale - Breathing Problems, Change from Baseline, Median” value [1] of the same compound?
The value was 0.000.

And the “SHAQ Visual Analogue Scale - Breathing Problems, Change from Baseline, Min” value [1]?
Its value is −2.00.

And the “SHAQ Visual Analogue Scale - Breathing Problems, Change from Baseline, Q1” value [1]?
The value was −0.700.

What about the “SHAQ Visual Analogue Scale - Breathing Problems, Change from Baseline, Q3” value [1] of the same compound?
The value was 0.450.

What about the “SHAQ Visual Analogue Scale - Breathing Problems, Percent Change from Baseline, Max” value [1] of the same compound?
The value was 600.0%.

What about the “SHAQ Visual Analogue Scale - Breathing Problems, Percent Change from Baseline, Mean” value [1] of the same compound?
The value was 50.12%.

What about the “SHAQ Visual Analogue Scale - Breathing Problems, Percent Change from Baseline, Median” value [1] of the same compound?
Its value is −16.00%.

And the “SHAQ Visual Analogue Scale - Breathing Problems, Percent Change from Baseline, Min” value [1]?
The value was −100.0%.

And the “SHAQ Visual Analogue Scale - Breathing Problems, Percent Change from Baseline, Q1” value [1]?
Its value is −75.00%.

And the “SHAQ Visual Analogue Scale - Breathing Problems, Percent Change from Baseline, Q3” value [1]?
The value was 115.63%.

And the “SHAQ Alternative Disability Index, Max” value (In-Clinic Visit (Day 12))?
The value was 1.50.

What about the “SHAQ Alternative Disability Index, Mean” value (In-Clinic Visit (Day 12)) of the same compound?
The value was 0.450.

And the “SHAQ Alternative Disability Index, Median” value (In-Clinic Visit (Day 12))?
The value was 0.250.

And the “SHAQ Alternative Disability Index, Min” value (In-Clinic Visit (Day 12))?
Its value is 0.00.

And the “SHAQ Alternative Disability Index, Q1” value (In-Clinic Visit (Day 12))?
Its value is 0.000.

What about the “SHAQ Alternative Disability Index, Q3” value (In-Clinic Visit (Day 12)) of the same compound?
Its value is 0.714.

What about the “SHAQ Visual Analogue Scale - Finger Ulcers, Max” value (In-Clinic Visit (Day 12)) of the same compound?
The value was 5.60.

And the “SHAQ Visual Analogue Scale - Finger Ulcers, Mean” value (In-Clinic Visit (Day 12))?
Its value is 0.731.

And the “SHAQ Visual Analogue Scale - Finger Ulcers, Median” value (In-Clinic Visit (Day 12))?
Its value is 0.000.

And the “SHAQ Visual Analogue Scale - Finger Ulcers, Min” value (In-Clinic Visit (Day 12))?
Its value is 0.00.

And the “SHAQ Visual Analogue Scale - Finger Ulcers, Q1” value (In-Clinic Visit (Day 12))?
Its value is 0.000.

And the “SHAQ Visual Analogue Scale - Finger Ulcers, Q3” value (In-Clinic Visit (Day 12))?
Its value is 0.900.

What about the “SHAQ Visual Analogue Scale - Intestinal Problems, Max” value (In-Clinic Visit (Day 12)) of the same compound?
Its value is 4.50.

What about the “SHAQ Visual Analogue Scale - Intestinal Problems, Mean” value (In-Clinic Visit (Day 12)) of the same compound?
Its value is 1.121.

And the “SHAQ Visual Analogue Scale - Intestinal Problems, Median” value (In-Clinic Visit (Day 12))?
The value was 0.600.

What about the “SHAQ Visual Analogue Scale - Intestinal Problems, Min” value (In-Clinic Visit (Day 12)) of the same compound?
The value was 0.00.

And the “SHAQ Visual Analogue Scale - Intestinal Problems, Q1” value (In-Clinic Visit (Day 12))?
Its value is 0.000.

And the “SHAQ Visual Analogue Scale - Intestinal Problems, Q3” value (In-Clinic Visit (Day 12))?
The value was 1.900.

And the “SHAQ Visual Analogue Scale - Overall Disease Severity, Max” value (In-Clinic Visit (Day 12))?
Its value is 7.30.

And the “SHAQ Visual Analogue Scale - Overall Disease Severity, Mean” value (In-Clinic Visit (Day 12))?
The value was 2.203.

What about the “SHAQ Visual Analogue Scale - Overall Disease Severity, Median” value (In-Clinic Visit (Day 12)) of the same compound?
The value was 1.400.

And the “SHAQ Visual Analogue Scale - Overall Disease Severity, Min” value (In-Clinic Visit (Day 12))?
Its value is 0.00.

What about the “SHAQ Visual Analogue Scale - Overall Disease Severity, Q1” value (In-Clinic Visit (Day 12)) of the same compound?
The value was 0.800.

What about the “SHAQ Visual Analogue Scale - Overall Disease Severity, Q3” value (In-Clinic Visit (Day 12)) of the same compound?
The value was 3.050.

What about the “SHAQ Visual Analogue Scale - Pain, Max” value (In-Clinic Visit (Day 12)) of the same compound?
Its value is 5.50.

What about the “SHAQ Visual Analogue Scale - Pain, Mean” value (In-Clinic Visit (Day 12)) of the same compound?
Its value is 2.476.

And the “SHAQ Visual Analogue Scale - Pain, Median” value (In-Clinic Visit (Day 12))?
Its value is 2.200.

What about the “SHAQ Visual Analogue Scale - Pain, Min” value (In-Clinic Visit (Day 12)) of the same compound?
The value was 0.00.

And the “SHAQ Visual Analogue Scale - Pain, Q1” value (In-Clinic Visit (Day 12))?
Its value is 1.000.

And the “SHAQ Visual Analogue Scale - Pain, Q3” value (In-Clinic Visit (Day 12))?
The value was 3.800.

And the “SHAQ Visual Analogue Scale - Raynaud’s, Max” value (In-Clinic Visit (Day 12))?
Its value is 5.20.

And the “SHAQ Visual Analogue Scale - Raynaud’s, Mean” value (In-Clinic Visit (Day 12))?
The value was 2.022.

And the “SHAQ Visual Analogue Scale - Raynaud’s, Median” value (In-Clinic Visit (Day 12))?
The value was 1.400.

What about the “SHAQ Visual Analogue Scale - Raynaud’s, Min” value (In-Clinic Visit (Day 12)) of the same compound?
Its value is 0.00.

And the “SHAQ Visual Analogue Scale - Raynaud’s, Q1” value (In-Clinic Visit (Day 12))?
Its value is 0.500.

And the “SHAQ Visual Analogue Scale - Raynaud’s, Q3” value (In-Clinic Visit (Day 12))?
The value was 4.000.

What about the “SHAQ Visual Analogue Scale - Breathing Problems, Max” value [2] of the same compound?
The value was 6.90.

And the “SHAQ Visual Analogue Scale - Breathing Problems, Mean” value [2]?
Its value is 1.388.

What about the “SHAQ Visual Analogue Scale - Breathing Problems, Median” value [2] of the same compound?
Its value is 0.300.

And the “SHAQ Visual Analogue Scale - Breathing Problems, Min” value [2]?
The value was 0.00.

What about the “SHAQ Visual Analogue Scale - Breathing Problems, Q1” value [2] of the same compound?
Its value is 0.000.

What about the “SHAQ Visual Analogue Scale - Breathing Problems, Q3” value [2] of the same compound?
Its value is 1.800.
